The text below walks through data of patent publication US7410975B2, “Small molecule toll-like receptor (TLR) antagonists” (Coley Pharmaceutical Group, Inc., priority 2003, dated 2008).

Structures can show the parent of a compound that is named as a salt.

This assay concerns the target T1, human TLR8 (hTLR8) (Homo sapiens, UniProt Q9NR97).
T1 construct: expressed in transfected cells
T1 sequence (Q9NR97 27-1041): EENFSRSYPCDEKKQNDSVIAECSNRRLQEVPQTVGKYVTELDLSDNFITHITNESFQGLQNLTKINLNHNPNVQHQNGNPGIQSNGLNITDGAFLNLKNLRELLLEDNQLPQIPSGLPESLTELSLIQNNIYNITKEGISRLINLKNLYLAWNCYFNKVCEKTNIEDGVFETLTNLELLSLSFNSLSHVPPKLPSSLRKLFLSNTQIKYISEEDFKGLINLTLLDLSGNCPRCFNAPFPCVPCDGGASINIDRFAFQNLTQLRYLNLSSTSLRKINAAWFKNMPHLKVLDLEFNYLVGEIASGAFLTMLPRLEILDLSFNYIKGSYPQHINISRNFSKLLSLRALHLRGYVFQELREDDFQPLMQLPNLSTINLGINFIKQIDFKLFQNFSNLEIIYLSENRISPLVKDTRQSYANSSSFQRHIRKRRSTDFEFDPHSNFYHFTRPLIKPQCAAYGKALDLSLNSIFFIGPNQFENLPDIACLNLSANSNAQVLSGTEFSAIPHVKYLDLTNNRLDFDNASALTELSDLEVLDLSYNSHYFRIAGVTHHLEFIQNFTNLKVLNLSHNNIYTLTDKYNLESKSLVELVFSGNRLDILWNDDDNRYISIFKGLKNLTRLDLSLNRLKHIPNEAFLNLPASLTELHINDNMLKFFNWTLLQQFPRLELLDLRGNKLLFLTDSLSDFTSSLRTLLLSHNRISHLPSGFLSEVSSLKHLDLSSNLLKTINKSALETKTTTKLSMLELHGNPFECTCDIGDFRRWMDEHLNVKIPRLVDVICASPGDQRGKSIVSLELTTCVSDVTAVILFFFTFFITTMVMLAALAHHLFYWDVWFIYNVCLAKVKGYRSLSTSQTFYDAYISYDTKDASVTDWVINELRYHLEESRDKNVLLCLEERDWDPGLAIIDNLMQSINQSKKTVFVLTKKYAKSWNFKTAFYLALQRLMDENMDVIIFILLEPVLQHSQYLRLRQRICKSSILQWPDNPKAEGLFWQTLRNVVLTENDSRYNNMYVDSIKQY
Kind of assay: Antagonist screen, hTLR8-NFκB-293 cells, NF-κB-luciferase reporter, with EC50 of R848. The assay is classed as cell-based. The following applies: compound at 0.5, 5, 50 μg/ml; EC50 concentration of R848; 16 h; NF-κB-luciferase. On the procedure:
The method is described in greater detail as follows. The cells for each individual cell clone (hTLR3-NFκB-293, hTLR7-NFκB-293, hTLR8-NFκB-293 and hTLR9-NFκB-293) were counted and seeded one day before the stimulation at 1.5×10^4 cells per well in 96-well cell culture plates. To become adherent the cells were incubated after seeding overnight at 37° C. in 5% CO2 humidified air.
The screen for each compound was performed at the same time for all of the receptors TLR3, TLR7, TLR8 and TLR9. Up to fifteen test compounds, each assayed in duplicate at each of three different final concentrations (0.5 μg/ml, 5 μg/ml, and 50 μg/ml), were used for 16 h cell stimulation on a single multiwell culture plate. A 4× final concentration master plate was created to prepare the different test compounds before they were added to the cells.
Controls were added as duplicates individually for each cell clone on the cell culture plate. Positive controls were used as follows (final concentrations): 50 μg/ml poly(I:C) for hTLR3-NFκB-293; 8 μM resiquimod (R848) for hTLR7-NFκB-293; 30 μM R848 for hTLR8-NFκB-293; and 2.5 μM CpG-ODN 2006 for hTLR9-NFκB-293. Media alone was used as negative control. After addition of controls and small molecules, the cell clones were additionally stimulated with the EC50 concentration of the appropriate receptor-specific ligand.
The mean value of wells H2 and H5 (each with cells and EC50 concentration of the appropriate receptor-specific ligand) divided by the mean of wells H3 and H6 (each with cells alone) yielded the baseline response (i.e., fold induction of luciferase activity) to EC50 concentration of the appropriate receptor-specific ligand.
After 16 h stimulation the supernatant was removed and the cells treated with lysis buffer and stored at −80° C. before measuring.
For each screen result a graphical documentation was performed.
The baseline result (measured with addition of the EC50 concentration of the receptor-specific ligand) for each cell culture plate was measured as described above. Antagonistic effects were measured by down regulation compared to the baseline. Antagonists were scored as follows: • 13: compounds for which there was clear down regulation at 0.5 μg/ml, 5 μg/ml, and 50 μg/ml; • 12: compounds for which there was clear down regulation at 5 μg/ml and 50 μg/ml; • 11: compounds for which there was clear down regulation only at 50 μg/ml; • —: compounds for which there was no clear down regulation even at 50 μg/ml. Agonists
Results were expressed as fold induction over baseline luciferase activity measured in the absence of R848. […] Additional screening was performed in like manner using additional small molecules selected from another library or specifically prepared for this purpose. Scoring is reported as above but as applied to TLR8.
For orientation: A reporter such as luciferase makes a cellular process visible.
For the compound `CC(=O)c1ccc2c(c1)N(CCCN(C)C)c1ccccc1S2.O=C(O)/C=C\C(=O)O` [compound 576, Acetopromazinemaleate salt], the “hTLR8 (inhibitory effect, antagonist score)” value is reported as “— (compounds for which there was no clear down regulation even at 50 μg/ml)”.

As to `COC(=O)C1=CO[C@@H](C)[C@@H]2CN3CCc4c([nH]c5ccccc45)[C@@H]3C[C@H]12` [compound 593, Tetrahydroalstonine], the “hTLR8 (inhibitory effect, antagonist score)” value is reported as “— (compounds for which there was no clear down regulation even at 50 μg/ml)”.

Take `CC[C@]12CCCN3CCc4c(n(c5ccccc45)C(=O)C1)[C@@H]32` [compound 607, Eburnamonine]: the “hTLR8 (inhibitory effect, antagonist score)” value was “— (compounds for which there was no clear down regulation even at 50 μg/ml)”.

In the case of `Cc1nccc2c1[nH]c1cc(O)ccc12.Cl` [compound 612, Harmol hydrochloride monohydrate], the “hTLR8 (inhibitory effect, antagonist score)” value is given as 11 (compounds for which there was clear down regulation only at 50 μg/ml).

For the compound `COc1ccc2c(c1)[nH]c1c(C)nccc12.Cl` [compound 613, harmine hydrochloride], the “hTLR8 (inhibitory effect, antagonist score)” value is 13 (compounds for which there was clear down regulation at 0.5 μg/ml, 5 μg/ml, and 50 μg/ml).

Take `Cc1c2ccncc2c(C)c2c1[nH]c1ccccc12` [compound 614, Ellipticine]: the “hTLR8 (inhibitory effect, antagonist score)” value is given as 11 (compounds for which there was clear down regulation only at 50 μg/ml).

Turning to `Cc1nccc2c1[nH]c1ccccc12` [compound 620, Harmane hydrochloride], the “hTLR8 (inhibitory effect, antagonist score)” value is recorded as “— (compounds for which there was no clear down regulation even at 50 μg/ml)”.

Turning to `COc1ccc2[nH]c3c(c2c1)CCN=C3C` [compound 621, Methoxy-6-harmalan], the “hTLR8 (inhibitory effect, antagonist score)” value is “— (compounds for which there was no clear down regulation even at 50 μg/ml)”.

As to `CC[C@]12CCCN3CCc4c(n(c5ccccc45)[C@](O)(C(=O)OC)C1)[C@@H]32` [compound 636, Epivincamine], the “hTLR8 (inhibitory effect, antagonist score)” value is reported as “— (compounds for which there was no clear down regulation even at 50 μg/ml)”.

Take `Cl.Cl.c1ccc2c3c([nH]c2c1)C1C2CCC(C4CCCNC42)N1CC3` (centres unmarked) [compound 685, Nitrarine dihydorchloride]: the “hTLR8 (inhibitory effect, antagonist score)” value was “— (compounds for which there was no clear down regulation even at 50 μg/ml)”.

With `CN(C)CCCN1c2ccccc2Sc2ccccc21.Cl` [compound 693, Promazinehydrochloride], the “hTLR8 (inhibitory effect, antagonist score)” value is reported as “— (compounds for which there was no clear down regulation even at 50 μg/ml)”.

Regarding `CN1CCC(OC(c2ccccc2)c2ccccc2)CC1.Cl` [compound 707, Diphenylpyralinehydrochloride], the “hTLR8 (inhibitory effect, antagonist score)” value is recorded as “— (compounds for which there was no clear down regulation even at 50 μg/ml)”.

For the compound `CCCC(C(=O)OCCN(CC)CC)(c1ccccc1)c1ccccc1.Cl` [compound 778, Proadifen hydrochloride], the “hTLR8 (inhibitory effect, antagonist score)” value is reported as 11 (compounds for which there was clear down regulation only at 50 μg/ml).

With `Cl.Clc1ccc(C(OCCN2CCCCC2)c2ccccc2)cc1` (centres unmarked) [compound 793, Cloperastinehydrochloride], the “hTLR8 (inhibitory effect, antagonist score)” value was “— (compounds for which there was no clear down regulation even at 50 μg/ml)”.

For the compound `COc1ccc2c(c1)N(CC(C)CN(C)C)c1ccccc1S2.O=C(O)/C=C\C(=O)O` (centres unmarked) [compound 797, Methotrimeprazinemaleat salt], the “hTLR8 (inhibitory effect, antagonist score)” value is given as 11 (compounds for which there was clear down regulation only at 50 μg/ml).

Consider `CS(=O)(=O)O.OC(CCN1CCCCC1)(c1ccccc1)c1ccccc1` [compound 799, Pridinolmethanesulfonate salt], for which the “hTLR8 (inhibitory effect, antagonist score)” value is given as “— (compounds for which there was no clear down regulation even at 50 μg/ml)”.

For `C[N+]12CCC(CC1)C(OC(=O)C(O)(c1ccccc1)c1ccccc1)C2.[Br-]` (centres unmarked) [compound 822, Clidinium bromide], the “hTLR8 (inhibitory effect, antagonist score)” value is “— (compounds for which there was no clear down regulation even at 50 μg/ml)”.

`Clc1ccc(C(c2ccccc2Cl)C(Cl)Cl)cc1` (centres unmarked) [compound 833, Mitotane]: the “hTLR8 (inhibitory effect, antagonist score)” value is listed as 11 (compounds for which there was clear down regulation only at 50 μg/ml).

As for `CCN(CC)C(C)CN1c2ccccc2Sc2ccccc21.Cl` (centres unmarked) [compound 840, Ethopropazinehydrochloride], the “hTLR8 (inhibitory effect, antagonist score)” value is 11 (compounds for which there was clear down regulation only at 50 μg/ml).

Turning to `CC(CN(C)C)CN1c2ccccc2Sc2ccccc21.CC(CN(C)C)CN1c2ccccc2Sc2ccccc21.O=C(O)C(O)C(O)C(=O)O` (centres unmarked) [compound 842, Trimeprazine tartrate], the “hTLR8 (inhibitory effect, antagonist score)” value was 11 (compounds for which there was clear down regulation only at 50 μg/ml).

`COC(=O)[C@H]1[C@H]2C[C@@H]3c4[nH]c5cc(OC)ccc5c4CCN3C[C@H]2C[C@@H](OC(=O)c2cc(OC)c(OC)c(OC)c2)[C@@H]1OC` [compound 875, Reserpine]: the “hTLR8 (inhibitory effect, antagonist score)” value is “— (compounds for which there was no clear down regulation even at 50 μg/ml)”.

As for `OCc1cc2c(cn1)[nH]c1ccccc12` [compound 878, 3-hydroxymethyl-beta-carboline], the “hTLR8 (inhibitory effect, antagonist score)” value is “— (compounds for which there was no clear down regulation even at 50 μg/ml)”.

Regarding `O=C(O)c1cc(C(c2ccc(O)c(C(=O)O)c2)C(Cl)(Cl)Cl)ccc1O` [compound 884], the “hTLR8 (inhibitory effect, antagonist score)” value is 11 (compounds for which there was clear down regulation only at 50 μg/ml).

Turning to `CN(CCO)C(=O)c1cccc2c1-c1ccccc1C2=O` [compound 890], the “hTLR8 (inhibitory effect, antagonist score)” value is on record as 11 (compounds for which there was clear down regulation only at 50 μg/ml).

On to `COC(=O)c1cccc2c1-c1ccccc1/C2=N/O` [compound 904], for which the “hTLR8 (inhibitory effect, antagonist score)” value was 13 (compounds for which there was clear down regulation at 0.5 μg/ml, 5 μg/ml, and 50 μg/ml).

`O=C(O)c1ccccc1NC1CC=CC2=C1C(=O)c1ccccc1C2=O` (centres unmarked) [compound 917]: the “hTLR8 (inhibitory effect, antagonist score)” value is “— (compounds for which there was no clear down regulation even at 50 μg/ml)”.

On to `O=C(O)c1cccc2c1/C(=N/O)c1ccccc1-2` [compound 918], for which the “hTLR8 (inhibitory effect, antagonist score)” value is on record as “— (compounds for which there was no clear down regulation even at 50 μg/ml)”.

As for `CCCCOC(=O)c1cc([N+](=O)[O-])cc2c1-c1cc(CO)c([NH+]([O-])O)cc1C2=C(C#N)C#N` (centres unmarked) [compound 939], the “hTLR8 (inhibitory effect, antagonist score)” value is “— (compounds for which there was no clear down regulation even at 50 μg/ml)”.

As for `O=C(O)c1cccc2c1-c1ccccc1/C2=N/Nc1ccc([N+](=O)[O-])cc1[N+](=O)[O-]` [compound 944], the “hTLR8 (inhibitory effect, antagonist score)” value is “— (compounds for which there was no clear down regulation even at 50 μg/ml)”.
